# Assays:
# H9c2 cells [1] = assay: H9c2 cell viability by MTT method after H2O2 injury; format: cell-based; settings: H2O2 200 μmol/L 2 hours; SPRC Low Dose 10^−7 mol/L
# Description: (§1) H9c2 cells were cultured in DMEM with 10% of fetal bovine serum, 37 degree C. and 5% CO2 incubator. The monolayer culture was split at a 1:4 ratio or harvested to perform experiments when confluence was 70-80%. Adjust the density of the cells to […] and inoculate the cells on a 96 well plate.
# Control group, no SAC analogues treatment, no H2O2 injured process.
# (§2) H2O2 injury (Model) group, no SAC analogues treatment, under H2O2 200 μmol/L for 2 hours.
# (§3) PAG group, PAG 10^−4/mol/L
# (§4) SPRC dosage groups: SPRC 1E-7, SPRC 1E-6, SPRC 1E-5, the cell groups were treated with SPRC dosages of 10^−7 mol/L, 10^−6 mol/L, 10^−5 mol/L respectively.
# (§5) SPRC dosage+PAG groups: the cell group was treated with SPRC dosages of 10^−5 mol/L and PAG 10^−4 mol/L.
# H9c2 cell viability was assessed by MTT method. […] PAG is able to block the effect of SPRC.
# H9c2 cells [2] = assay: LDH leakage of H9c2 cells injured by H2O2; format: cell-based; settings: for LDH Leakage: H2O2 200 μmol/L 2 hours
# Description: as §1, §2, §3, §4, §5
# The cell samples (10^6 cells/sample) from each group were lysed under sterilized condition, and LDH contents in each samples were tested by pyruvic acid production method.
# H9c2 cells [3] = assay: Mn-SOD activity of H9c2 cells injured by H2O2; format: cell-based; settings: H2O2 injured H9c2; SPRC Low Dose 10^−7 mol/L
# Description: (§6) H9c2 cells were cultured same as Example 12, the cells were then divided into the groups same as Example 12.
# The cells were lysed under sterilized condition, and lipid peroxidation experiments on the samples were performed. […] The effect of SPRC could be blocked by PAG, indicating SPRC mediates its effect on H9c2 cell by way of endogenous H2S.
# myocardial cells [4] = assay: SOD activity (Hydroxylamine method) in hypoxia/reoxygenation injured myocardial cells; format: cell-based, Sprague-Dawley (SD) rat
# Description: Myocardial cell samples were obtained from the same procedure of Example 1, the experiment groups were divided and hypoxia/reoxygenation experiments were performed on Control group, Vehicle group, SAC and analogue groups, same as the experiments in Example 1 with the same dosages and same conditions. Myocardial cells were obtained from each sample (10^6 myocardial cells/sample) from the Control group, Vehicle group, SAC and analogue groups. The cells were lysed under sterilized condition, and SOD (superoxide dismutase) activities in each sample of the cells were determined by Hydroxylamine method (a conventional method well known in the arts) using each microgram of protein per 1 milliliter reaction solution inhibits SOD activity to its 50% of original activity, in which the amount of SOD used in the reaction as standard of 1 unit of SOD activity.
# myocardial cells [5] = assay: Lipid peroxidation (MDA, TBA) in hypoxia/reoxygenation injured myocardial cells; format: cell-based, Sprague-Dawley (SD) rat; settings: 10^−5 mol/L
# Description: Myocardial cell samples were obtained from the same procedure of Example 1, the experiment groups were divided and hypoxia/reoxygenation experiments were performed on Control group, Vehicle group, SAC and analogue groups, same as the experiments in Example 1 with the same dosages and same conditions. Myocardial cells were obtained from each sample (10^6 myocardial cells/sample) from the Control group, Vehicle group, SAC and analogue groups. The cells were lysed under sterilized condition, and lipid peroxidation experiments on the samples were performed. Since oxygen free radical attacks poly unsaturated fatty acid in biomembrane, inducing lipid peroxidation and producing MDA (malondialdehyde). MDA can react with thiobarbituric acid (TBA), forms red product, which can be detected in spectrophotometer at 532 nm. […] The inhibition effect could be reversed by PAG.
# H9c2 cells [6] = assay: Apoptosis of H9c2 cells, Hoechst and PI double stain; format: cell-based; settings: H2O2 injured H9c2; Hoechst 33342 and PI double stain
# Description: as §6
# Cells were washed in PBS and then stained with Hoechst 33342 (10 μg/ml) and propidium iodide (10 μg/ml) for 10 min at 37° C. Cells were washed again with PBS and fixed with 3.7% paraformaldehyde (v/v). Each field of cells was photographed twice (magnification, ×400), using appropriate filters to examine and compare Hoechst 33342 and PI fluorescence staining in the same cells. […]. Apoptosis is of great damage to the structure and the function of the heart, which leads to heart failure.
# CSE = assay: Western blot of CSE protein in left ventricle; format: in vivo, SD rats; settings: MI rats, 50 mg/Kg/day, p<0.01
# Excerpt: Animals were assigned and prepared the same as in Example 7, and dosages of SPRC and SAC were used the same in this example as in Example 7.
# rats following MI injury = assay: ECG in rats following MI injury; format: in vivo, SD rats; settings: 50 mg/Kg/day, day 10, 48 hr after the induction of MI
# Description: SPRC and SAC were dissolved in saline (vehicle). Male SD rats (weight 200-250 g) were randomly assigned to […] treatment groups: group (1) Sham group: Sham-treated with saline (n=4), (2) Sham+SPRC group: Sham-treated with SPRC (50 mg/Kg/day) (n=4), (3) Sham+SAC group: Sham-treated with SAC (50 mg/Kg/day) (n=4), (4) MI group: MI treated with saline (n=8), (5) MI+SPRC group: MI treated with SPRC (50 mg/Kg/day) (n=8), (6) MI+SAC group: MI treated with SAC (50 mg/Kg/day) (n=8). Rats were pre-treated for seven days with each SAC analogues respectively via an intraperitoneal injection once daily before they were used for MI model studies. […] Briefly, the rats were anesthetized with 7% choral hydrate (60 mg/kg intraperitoneal injection), endotracheally intubated and mechanically ventilated with room air, respiratory rate 100 breaths/min, tidal volume 2.5 ml with a rodent ventilator (DHX-150, China). ECG was recorded in the anaesthetized animal for a period of one minute using the Animal Mflab200 amplifier (Produced in China). A left thoracotomy was performed and the third intercostal space was exposed. […] Then incisions were sutured and the chests were closed. […] Forty eight hours after the surgery, ECG was recorded for each rat in each group. […] To evaluate the effect of SPRC and SAC on MI, infarct size were measured after TTC staining (FIG. 12).
smiles,measurement,setting,value
"C#CCSC[C@H](N)C(=O)O [SPRC, S-propargyl-cysteine]",H9c2 Cell Survive,H9c2 cells [1],62.4 ± 1.6%
same,LDH Leakage,H9c2 cells [2]; SPRC High Dose 10^−5 mol/L,43.9 ± 3.0 %
same,LDH Leakage,H9c2 cells [2]; SPRC Low Dose 10^−7 mol/L,51.4 ± 1.8%
same,LDH Leakage,H9c2 cells [2]; SPRC middle Dose 10^−6 mol/L,50.0 ± 2.6 %
same,LDH leakage compared with model group,"H9c2 cells [2]; H2O2 injured H9c2, SPRC groups (10^−7 to 10^−5 mol/L)",less LDH leakage than that of model group
same,Mn-SOD Activity,H9c2 cells [3],8.75 ± 0.68 U/mgprot
same,Mn-SOD activity in mitochondria,myocardial cells [4]; 10^−5 mol/L,able to elevate
same,effect of PAG on elevating Mn-SOD activity,myocardial cells [4]; with PAG,PAG also reversed
same,lipid peroxidation (MDA),myocardial cells [5],inhibited
same,apoptosis of H9c2 cells,H9c2 cells [6],effective on inhibiting apoptosis of H9c2 cells
same,CSE protein expression,CSE,up-regulated
same,ST-segment elevation in ECG,rats following MI injury,less elevated ST-segment
